Earlier results as cited in patent publication US20070119380A1, “Additive Composition for Feeding Aquaculture Animals and Feed Containing the Same” (priority 2003, published 2007).

Tests used:
mice = details: interperitoneal and oral administration
[1] = in whitefish flesh/muscle, fresh/wet sample

Structure (SMILES)	sub-lethal toxic effects (mice)	minimal amount (flavor threshold value) to produce a recognizable sensation [1]
Oc1c(Br)cc(Br)cc1Br [2,4,6-tribromophenol]	no sub-lethal toxic effects	10 ng/g
Oc1ccc(Br)cc1Br [2,4-dibromophenol]	–	50 ng/g
Oc1c(Br)cccc1Br [2,6-dibromophenol]	–	0.1 ng/g
Oc1ccccc1Br [2-bromophenol]	no sub-lethal toxic effects	10 ng/g
Oc1ccc(Br)cc1 [4-bromophenol]	–	20 ng/g
